# Test results: patent publication US10912752B2, “Methods and compositions for reducing ocular discomfort” (Brien Holden Vision Institute Limited, priority 2012, dated 2021)
# Entries after “also recorded” stand apart in the source; their conditions may differ.
# Tests used:
# IL-1β = assay: qRT-PCR of mouse conjunctiva, ICES dry eye model; assay type: in vivo, C57BL/6 mice; settings: normalized to GAPDH; for mRNA expression of IL-1β vs PBS treatment group: Schedule 1, Day 21, conjunctiva
# Description: (§1) For Schedule 1, six (6×) mice per each group at the end of Day 21 and five (5×) mice from each group at the end of Day 35 post-housing in ICES and undergoing the treatment were sacrificed with an overdose of a mixture of ketamine and xylazine for qRT-PCR evaluation of […] inflammatory responses. On the other hand, for Schedule 2, three (3×) mice were sacrificed at the end of Day 21, and all the other mice were sacrificed at the end of Day 35 post-housing in ICES and undergoing the treatment. Additionally, seven healthy animals which were not housed in ICES and received no treatment were euthanized as healthy controls for comparison.
# (§2) For qRT-PCR detection of IL-1β, IL-6, IL-17, TNF-α, and GAPDH, total RNA from conjunctivas (2 eyes/group/schedule) were extracted and pooled from each of the five experimental groups using the RNA isolation kit according to the manufacturer's instructions (PicoPure RNA isolation kit, 40 isolations, Arcturus). cDNA was synthesized from 1-μg of total RNA using random primer and M-MuLV reverse transcriptase. The primer sequences for qRT-PCR detection of these mediators have been designed in preparation for qRT-PCR work (Table 1).
# (§3) Expression of IL-1β, IL-6, IL-17, or TNF-α detected at mRNA level from Real-time PCR were normalized to that of the housekeeping gene GAPDH. Total RNA were collected from the pooled conjunctiva from 2 eyes of each group (total 6× eyes per each treatment group were used for qRT-PCR).
# IL-6 = assay: qRT-PCR of mouse conjunctiva, ICES dry eye model; assay type: in vivo, C57BL/6 mice; settings: normalized to GAPDH; for mRNA expression of IL-6 vs PBS treatment group: Schedule 1, Day 21, conjunctiva
# Description: as §1, §2, §3
# caspase-3/7 = assay: Caspase-Glo luminescent caspase activity in HCLE under hyperosmotic stress; assay type: cell-based, human; settings: 16 h
# Protocol: (§4) Caspase-3/7, -8 and -9 activities were assayed using a luminescent assay kit (Promega, Madison, Wis.) according to the manufacturer's instructions. Briefly, 100 μL of Caspase-Glo-3/7, -8 and -9 reagents were added to HCLE at maintained on plastic at 2×10^4/cm^2, mixed and incubated for one hour at room temperature. Luminescence was measured using a SpectraFluor Plus microplate reader.
# (§5) […] Induction of apoptosis was detected by quantification of the proteolytic activity of caspase-8, caspase-9, or caspase-3/7 using caspase activity assays, and production of tumor necrosis factor (TNF)-α, a known apoptosis inducer, using ELISA. Annexin V and Propidium iodine (PI) staining was performed to detect the percentage of apoptotic cells using confocal microscopy and flow cytometry.
# caspase-9 = assay: as above; assay type: cell-based, human; settings: 16 h
# Protocol: as §4, §5
# [1] = Effect on final osmolarity of culture medium (vapour pressure osmometer); assay type: physicochemical; settings: up to 10 mM; results not shown
# Protocol: (§6) 500 mOsm and exposure time (16 h) to be the most informative under which to observe hyperosmolality induced cellular responses of HCLE (results not shown). Thus, in the present study, a hyperosmotic medium of 500 mOsm and exposure time of 16 h were used throughout. Hyperosmolar media were prepared by the addition of NaCl to the medium. Medium osmolarity was measured using a Vapro 5520 vapour pressure osmometer (Wescor, Logan, Utah). Subconfluent cells were exposed to hyperosmolar media in the presence or absence of betaine (5 or 10 mM). Mitochondrial and proliferation activities for cell viability; TNF-α production; caspase activity and Annexin V/PI staining for apoptosis; and cellular shrinkage were monitored as detailed below.
# HCLE cells [2] = assay: CyQUANT cell number after hyperosmolar medium; assay type: cell-based, human; settings: 5 or 10 mM, 500 mOsm, 16 h, vs hyperosmotic control
# Protocol: as §6
# (§7) MTT viability assay kit was used to measure cell viability (above). CyQUANT cell proliferation assay kit (Invitrogen-Molecular probe, Eugene, Oreg.) was used to determine the cell number. Culture supernatants were removed and centrifuged at 1500 rpm for 10 min to harvest any detached cells from the supernatant. Remaining cells were rinsed once with PBS. […] Fluorescence, indicating cell viability, was measured using SpectraFluor Plus microplate reader (Tecan, Männedorf, Switzerland); 485 nm for excitation and 535 nm for emission maxima.
# HCLE cells [3] = assay: MTT mitochondrial activity after hyperosmolar medium; assay type: cell-based, human; settings: 5 or 10 mM, 500 mOsm, 16 h, vs hyperosmotic control
# Protocol: as §6, §7
# HCLE cells [4] = assay: Annexin V/PI/Hoechst staining, confocal microscopy, damaged cells; assay type: cell-based, human; settings: 500 mOsm + 10 mM, 16 h
# Protocol: Cells undergoing apoptosis or necrosis were identified using Alexa Fluor 488 annexin V/Dead cell apoptosis assay (Invitrogen-Molecular probe) with some modifications. Cells were seeded at 6.5×10^4 cells mL^−1 in 75 cm^2 cell culture flask and incubated overnight. Once the cells reached 70%-80% confluence, they were subjected to different osmolarity treatments for 16 hours. Supernatants were removed and retained for collection of non-adherent cells. Adherent cells were rinsed twice with PBS and detached using 0.05% trypsin. The culture supernatant and trypsin digests were pelleted, rinsed twice in PBS, and combined during resuspenison in annexin-binding buffer. Five microlitres of Alexa Fluor 488 annexin V, 12.5 μg mL^−1 of Hoechst 33342 and 1 μg mL^−1 of propidium iodide (PI) were added to 100 μL of cell suspension containing approximately 1×10^5 cells and incubated at room temperature for 15 minutes. Cells were washed with 200 μL of annexin-binding buffer and deposited onto coverslips. […] Cells stained with annexin V, PI or Hoechst for apoptotic, necrotic or total cells, respectively, were quantified for each image using ImageJ (http://rsbweb.nih.gov/ij/; National Institutes of Health, Bethesda, Md.) to obtain an average value for each treatment.
# [5] = test system: human corneal epithelial cell; assay: Evaporative drying culture model, Annexin V/PI apoptotic/necrotic cells; assay type: cell-based; settings: 0.25% in culture medium, 4 hrs evaporative drying, 34° C.
# Protocol: A in vitro human corneal epithelial cell culture model was used where cells were cultured under a slow drying condition with the culture medium slowly evaporated over the time period of 4-4.5 hours at 34° C. (the temperature of human eyes) to mimic tear film evaporation.
# [6] = Schedule 2, Day 35, conjunctiva
effect on the final osmolarity of the medium [1],"change in Caspase-3/7 activity (in words) (caspase-3/7; 10 mM, hypertonic medium)","change in Caspase-9 activity (in words) (caspase-9; 10 mM, hypertonic medium)",SMILES,mRNA expression of IL-1β vs PBS treatment group (IL-1β),mRNA expression of IL-6 vs PBS treatment group (IL-6),"reduction of caspase-3/7 activity (caspase-3/7; 5 mM, 500 mOsm)","reduction of caspase-3/7 activity (caspase-3/7; 10 mM, 500 mOsm)","reduction of caspase-9 activity (caspase-9; 5 mM, 500 mOsm)","reduction of caspase-9 activity (caspase-9; 10 mM, 500 mOsm)",increase in cell numbers (HCLE cells [2]) [%],increase in mitochondrial activity (HCLE cells [3]) [%],percentage of damaged cells (of the total cells) (HCLE cells [4]) [%],mRNA expression of IL-1β vs PBS treatment group (IL-1β; listed as B),mRNA expression of IL-1β vs PBS control (C) (IL-1β; [6]),mRNA expression of IL-6 vs PBS treatment group (IL-6; listed as B),mRNA expression of IL-6 vs PBS control (C) (IL-6; [6]),"decreasing trend for caspase-3/7 activities (caspase-3/7; 10 mM, 500 mOsm) [%]","reduction in cellular caspase-9 activities (caspase-9; 10 mM, 500 mOsm) [%]",cellular damage (apoptotic and necrotic cells) caused by evaporation-increased osmolarity [5]
minimal effect,–,–,"C[N+](C)(C)CC(=O)[O-] [betaine, trimethylglycine]",statistically significant reduction,statistically significant reduction,2- to 3 fold,4- to 5.2 fold,2- to 3 fold,4- to 5.2 fold,12,17,7.5,–,–,–,–,–,–,–
–,significant lowering,significant lowering,"C[N+](C)(C)CC(O)CC(=O)[O-] (stereo not shown) [carnitine, 3-hydroxy-4-(trimethylazaniumyl)butanoate]",–,–,–,–,–,–,–,–,–,statistically significant reduction; also recorded: lowest expression level,statistically significant reduction,statistically significant reduction; also recorded: lowest expression level,statistically significant reduction,20,33,minimised the cellular damage
